Drawing on patent publication US8604055B2, “Substituted benzylamino quinolines as cholesterol ester-transfer protein inhibitors” (Dr. Reddy's Laboratories Ltd., priority 2004, dated 2013), this text covers IC50 for 22 compounds.

This test concerns the target T1, Recombinant CETP enzyme (Homo sapiens, UniProt P11597).
T1 construct: purchased Cardiovascular Targets
T1 sequence (P11597 18-493): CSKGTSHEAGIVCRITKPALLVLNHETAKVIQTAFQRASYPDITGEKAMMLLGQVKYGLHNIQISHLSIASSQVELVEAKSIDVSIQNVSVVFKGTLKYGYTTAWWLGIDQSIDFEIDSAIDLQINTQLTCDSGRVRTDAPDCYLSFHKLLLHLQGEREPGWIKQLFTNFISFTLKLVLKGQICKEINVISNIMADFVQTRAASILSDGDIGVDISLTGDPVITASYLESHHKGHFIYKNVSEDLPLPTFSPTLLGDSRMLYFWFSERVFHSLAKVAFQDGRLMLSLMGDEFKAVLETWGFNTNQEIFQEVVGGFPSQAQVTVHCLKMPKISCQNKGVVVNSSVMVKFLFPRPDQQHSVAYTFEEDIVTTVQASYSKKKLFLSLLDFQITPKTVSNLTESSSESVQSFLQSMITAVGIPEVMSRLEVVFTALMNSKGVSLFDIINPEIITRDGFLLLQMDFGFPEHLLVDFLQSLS
As to the kind of experiment: In vitro fluorescence-based CETP inhibition assay (BODIPY-CE transfer from donor to acceptor microemulsions). The class given is biochemical. The note with it: recombinant CETP 0.14 ng/μl; transfer of fluorescent cholesteryl ester monitored over 2 hours; vs DMSO controls. The method, then:
An in vitro fluorescence-based assay to identify CETP inhibitors was developed from modifications of the protocols outlined in Bisgaier et al., J Lipid Res., 34(9): 1625-34 (1993) and Epps et al., Chem Phys Lipids., 77(1): 51-63 (1995). Acceptor and donor lipid microemulsions were prepared according to Bisgaier et al., 1993, except that the buffer was prepared with 0.67 ug/mL human HDL (Calbiochem). Donor microemulsions contained the fluorescent cholesteryl ester analog BODIPY-CE (Molecular Probes), characterized by excitation and emission maxima at 503 nm and 518 nm, respectively. The CETP-mediated transfer of fluorescent cholesteryl ester to acceptor particles was monitored over a 2-hour time period using the FAM filter set (excitation 492 nm, emission 516 nm) in an MX3000P fluorescent plate reader (Stratagene). Recombinant CETP enzyme (Cardiovascular Targets) was used at 0.14 ng/μl, final concentration, to achieve lipid transfer. CETP inhibition by compounds was compared to DMSO controlsand graphed as a percentage of the control CETP activity over 2 hours. The IC50 curves for CETP inhibition were generated from the activity profiles. Active compounds were also tested for CETP inhibition as above, but in the presence of 3% human serum albumin, fraction V (Calbiochem).
What is called IC50 is the point on the concentration scale where inhibition reaches its midpoint. Consider `CCN(CC1CCC1)c1nc2c(cc1CN(Cc1cc(C(F)(F)F)cc(C(F)(F)F)c1)c1nnn(C)n1)c(C)nn2C` [Example 1, (5-{[(3,5-bis-trifluoromethyl-benzyl)-(2-methyl-2H-tetrazole-5-yl)-amino]-methyl}-1,3-dimethyl-1H-pyrazolo[3,4-b]pyridin-6-yl)-cyclobutylmethyl-ethyl-amine], for which the IC50 is at most 1000 nM. For `Cc1nn(C)c2nc(N(CC3CC3)CC3CC3)c(CN(Cc3cc(C(F)(F)F)cc(C(F)(F)F)c3)c3nnn(C)n3)cc12` [Example 2, (5-{[(3,5-bis-trifluoromethyl-benzyl)-(2-methyl-2H-tetrazole-5-yl)-amino]-methyl}-1,3-dimethyl-1H-pyrazolo[3,4-b]pyridin-6-yl)-bis-cyclopropylmethyl-amine] the value was at most 1000 nM; for `CCN(CC1CC1)c1nc2c(cc1CN(Cc1cc(C(F)(F)F)cc(C(F)(F)F)c1)c1nnn(C)n1)c(C)nn2C` [Example 3, (5-{[(3,5-bis-trifluoromethyl-benzyl)-(2-methyl-2H-tetrazole-5-yl)-amino]-methyl}-1,3-dimethyl-1H-pyrazolo[3,4-b]pyridin-6-yl)-cyclopropylmethyl-ethyl-amine], at most 1000 nM. For `Cc1nn(C)c2nc(N(C)CC3CCC3)c(CN(Cc3cc(C(F)(F)F)cc(C(F)(F)F)c3)c3nnn(C)n3)cc12` [Example 4, (5-{[(3,5-bis-trifluoromethyl-benzyl)-(2-methyl-2H-tetrazole-5-yl)-amino]-methyl}-1,3-dimethyl-1H-pyrazolo[3,4-b]pyridin-6-yl)-cyclobutylmethyl-methyl-amine] the value was at most 1000 nM; for `CCN(c1nc2c(cc1CN(Cc1cc(C(F)(F)F)cc(C(F)(F)F)c1)c1nnn(C)n1)c(C)nn2C)C(C)C` [Example 7, (5-{[(3,5-bis-trifluoromethyl-benzyl)-(2-methyl-2H-tetrazole-5-yl)-amino]-methyl}-1,3-dimethyl-1H-pyrazolo[3,4-b]pyridin-6-yl)-ethyl-isopropyl-amine], at most 1000 nM. Next, `CCN(CC1CCC1)c1nc2c(cc1CN(Cc1cc(C(F)(F)F)cc(C(F)(F)F)c1)c1cc(C)on1)c(C)nn2C` [Example 10, (5-{[(3,5-bis-trifluoromethyl-benzyl)-(5-methyl-isoxazol-3-yl)-amino]-methyl}-1,3-dimethyl-1H-pyrazolo[3,4-b]pyridin-6-yl)-cyclobutylmethyl-ethyl-amine]: at most 1000 nM; `Cc1cc(N(Cc2cc(C(F)(F)F)cc(C(F)(F)F)c2)Cc2cc3c(C)nn(C)c3nc2N(CC2CC2)CC2CC2)no1` [Example 11, (5-{[(3,5-bis-trifluoromethyl-benzyl)-(5-methyl-isoxazol-3-yl)-amino]-methyl}-1,3-dimethyl-1H-pyrazolo[3,4-b]pyridin-6-yl)-bis-cyclopropylmethyl-amine]: at most 1000 nM.

Take `CCN(CC1CCC1)c1nc2c(cnn2C)cc1CN(Cc1cc(C(F)(F)F)cc(C(F)(F)F)c1)c1nnn(C)n1` [Example 12, (5-{[(3,5-bis-trifluoromethyl-benzyl)-(2-methyl-2H-tetrazol-5-yl)-amino]-methyl}-1-methyl-1H-pyrazolo[3,4-b]pyridin-6-yl)-cyclobutylmethyl-ethyl-amine]: the IC50 is at most 1000 nM. Next, `Cn1nnc(N(Cc2cc(C(F)(F)F)cc(C(F)(F)F)c2)Cc2cc3cnn(C)c3nc2N(CC2CC2)CC2CC2)n1` [Example 13, (5-{[(3,5-bis-trifluoromethyl-benzyl)-(2-methyl-2H-tetrazol-5-yl)-amino]-methyl}-1-methyl-1H-pyrazolo[3,4-b]pyridin-6-yl)-bis-cyclopropylmethyl-amine]: at most 1000 nM; `CCn1ncc2cc(CN(Cc3cc(C(F)(F)F)cc(C(F)(F)F)c3)c3nnn(C)n3)c(N(CC3CC3)CC3CC3)nc21` [Example 14, (5-{[(3,5-bis-trifluoromethyl-benzyl)-(2-methyl-2H-tetrazol-5-yl)-amino]-methyl}-1-ethyl-1H-pyrazolo[3,4-b]pyridin-6-yl)-bis-cyclopropylmethyl-amine]: at most 1000 nM; `CCN(CC1CCCC1)c1nc2c(cc1CN(Cc1cc(F)cc(F)c1)c1nnn(C)n1)c(C)nn2C` [Example 18, cyclopentylmethyl-ethyl-(5-{[(3,5-difluoro-benzyl)-(2-methyl-2H-tetrazol-5-yl)-amino]-methyl}-1,3-dimethyl-1H-pyrazolo[3,4-b]pyridine-6-yl)-amine]: at most 1000 nM. Next, `CCN(CC1CCCC1)c1nc2c(cc1CN(Cc1cc(Cl)cc(Cl)c1)c1nnn(C)n1)c(C)nn2C` [Example 19, cyclopentylmethyl-(1,3-dimethyl-5-{[(2-methyl-2H-tetrazol-5-yl)-(3,5-dichlorobenzyl)-amino]-methyl}-1H-pyrazolo[3,4-b]pyridin-6-yl)-ethyl-amine]: at most 1000 nM. In the case of `CCN(CC1CCCC1)c1nc2c(cc1CN(Cc1cc(F)cc(C(F)(F)F)c1)c1nnn(C)n1)c(C)nn2C` [Example 20, cyclopentylmethyl-ethyl-(5-{[(3-fluoro-5-trifluoromethyl-benzyl)-(2-methyl-2H-tetrazol-5-yl)-amino]-methyl}-1,3-dimethyl-1H-pyrazolo[3,4-b]pyridin-6-yl)-amine], the IC50 is at most 1000 nM. For `Cc1nn(C)c2nc(N(CC3CC3)CC3CC3)c(CN(Cc3cc(Cl)cc(Cl)c3)c3nnn(C)n3)cc12` [Example 21, bis-cyclopropylmethyl-(5-{[(3,5-dichlorobenzyl)-(2-methyl-2H-tetrazol-5-yl)-amino]-methyl}-1,3-dimethyl-1H-pyrazolo[3,4-b]pyridin-6-yl)-amine] the value was at most 1000 nM. Next, `CCN(CC1CCCC1)c1nc2c(cc1CN(Cc1cc(C(F)(F)F)cc(C(F)(F)F)c1)c1nnn(C)n1)c(C)nn2C` [Example 24, (5-{[(3,5-bis-trifluoromethyl-benzyl)-(2-methyl-2H-tetrazol-5-yl)-amino]-methyl}-1,3-dimethyl-1H-pyrazolo[3,4-b]pyridin-6-yl)-cyclopentylmethyl-ethyl-amine]: at most 1000 nM. Next, `Cc1nn(C)c2nc(N(CC3CC3)C(=O)C3CC3)c(CN(Cc3cc(C(F)(F)F)cc(C(F)(F)F)c3)c3nnn(C)n3)cc12` [Example 27, cyclopropanecarboxylic acid (5-{[(3,5-bis-trifluoromethyl-benzyl)-(2-methyl-2H-tetrazol-5-yl)-amino]-methyl}-1,3-dimethyl-1H-pyrazolo[3,4-b]pyridin-6-yl)-cyclopropylmethyl-amide]: at most 1000 nM; `CCN(CC1CCCC1)c1nc2onc(C)c2cc1CN(Cc1cc(C(F)(F)F)cc(C(F)(F)F)c1)C(=O)OC` [Example 32, (3,5-bis-trifluoromethyl-benzyl)-[6-(cyclopentylmethyl-ethyl-amino)-3-methyl-isoxazolo[5,4-b]pyridine-5-ylmethyl}-carbamic acid methyl ester]: at most 1000 nM. As for `CCN(CC1CCCC1)c1nc2onc(C)c2cc1CN(Cc1cc(C(F)(F)F)cc(C(F)(F)F)c1)c1nnn(C)n1` [Example 33, (5-{[(3,5-bis-trifluoromethyl-benzyl)-(2-methyl-2H-tetrazol-5-yl)-amino]-methyl}-3-methyl-isoxazolo[5,4-b]pyridine-6-yl)-cyclopentylmethyl-ethyl-amine], the IC50 was at most 1000 nM. Next, `CCN(CC1CCCC1)c1nc2ccccc2cc1CN(Cc1cc(C(F)(F)F)cc(C(F)(F)F)c1)C(=O)OC` [Example 35, (3,5-bis-trifluoromethyl-benzyl)-[2-(cyclopentylmethyl-ethyl-amino)-quinolin-3-ylmethyl]-carbamic acid methyl ester]: at most 5000 nM; `CCCCN(CC)c1nc2ccccc2cc1CN(Cc1cc(C(F)(F)F)cc(C(F)(F)F)c1)C(=O)OCC` [Example 41, (3,5-bis-trifluoromethyl-benzyl)-[2-(butyl-ethyl-amino)-quinolin-3-ylmethyl]-carbamic acid ethyl ester]: at most 5000 nM.

`CCOC(=O)N(Cc1cc(C(F)(F)F)cc(C(F)(F)F)c1)Cc1cc2ccccc2nc1N(CC)CC1CCCCC1` [Example 42, (3,5-bis-trifluoromethyl-benzyl)-[2-(cyclohexylmethyl-ethyl-amino)-quinolin-3-ylmethyl]-carbamic acid ethyl ester]: the IC50 was at most 5000 nM. Consider `CCCN(CC1CCCC1)c1nc2ccccc2cc1CN(Cc1cc(C(F)(F)F)cc(C(F)(F)F)c1)C(=O)OCC` [Example 43, (3,5-bis-trifluoromethyl-benzyl)-[2-(cyclopentylmethyl-propyl-amino)-quinolin-3-ylmethyl]-carbamic acid ethyl ester], for which the IC50 was at most 5000 nM.
